Columns and labels:
[1] = Hair switch volume test (switches dosed, combed straight, dried overnight, image projection measured); settings: for % benefit: 2% solution; for Volume: same batch of switches, 0.2 ml of 2% solution; for Volume / volume (projection of the switch image on to the screen): combed straight, dried overnight; for volume (projection of the switch image on to the screen): 0.2 ml of 2% solution per 2 g switch
Protocol: Dark brown European wavy #6 switches (from 2 different batches) of length 25 cm and weight 2 g were dosed with 0.2 ml each of 2% glucosamine.HCl salt solution. Control switches were wetted with water. All switches were combed straight and left to dry overnight. When dry the switches were combed straight and pictures taken. […] (Here volume refers to the projection of the switch image on to the screen and is given in mm^2).
Dark brown European wavy #6 switches of length 25 cm and weight 2 gms (from the same batch of switches), were dosed with 0.2 ml each of 2% solutions of various mono and diglucosamine salts. Control switches were treated with water.
All switches were combed straight and left to dry overnight.
When dry the switches were combed straight and pictures taken. […] (Here volume refers to the projection of the switch image on to the screen and is given in mm^2). The percentage benefit (i.e. increase in volume) with respect to control (water) is also given.

[2] = Half head test on a mannequin head, styled with a blow dryer; settings: 2% solution on left half vs water on right half; picture the day following styling
Protocol: FIG. 1 is an image of a mannequin head taken the day following a test performed with one half (right hand side) treated with water and the other half (left hand side) treated with 2% glucosamine.HCI salt solution and followed by styling with a blow dryer. A half head test on a mannequin head was performed with one half (right hand side) treated with water and the other half (left hand side) treated with 2% glucosamine.HCl salt solution. The head was styled with a blow dryer for volume up benefit. FIG. 1 is a picture taken the day following the styling.

[3] = Example 2, increase in volume with respect to control (water)

| Molecule | % benefit [1, 3] [%] | Volume ([1]; Example 2) [mm^2] | further results |
| --- | --- | --- | --- |
| glucosamine glutarate | 9.1 | 15475 | – |
| N[C@H]1C(O)O[C@H](CO)[C@@H](O)[C@@H]1O.O=C(O)/C=C\C(=O)O (some centres unmarked) [glucosamine maleate] | 30.1 | 18450 | – |
| glucosamine 2-pyrrolidone-5-carboxylate [glucosamine PCA] | 37.5 | 19505 | – |
| diglucosamine fumarate | 38.0 | 19575 | – |
| diglucosamine succinate | 20.8 | 17136 | – |
| glucosamine nicotinate | 41.6 | 20087 | – |
| N[C@H]1C(O)O[C@H](CO)[C@@H](O)[C@@H]1O.O=C(O)/C=C/C(=O)O (some centres unmarked) [glucosamine fumarate] | 18.5 | 16802 | – |
| N[C@H]1C(O)O[C@H](CO)[C@@H](O)[C@@H]1O.O=C(O)CC(=O)O (some centres unmarked) [glucosamine malonate] | 21.6 | 17244 | – |
| CC(O)C(=O)O.N[C@H]1C(O)O[C@H](CO)[C@@H](O)[C@@H]1O (some centres unmarked) [glucosamine lactate] | 33.6 | 18944 | – |
| NCC(=O)O.N[C@H]1C(O)O[C@H](CO)[C@@H](O)[C@@H]1O (some centres unmarked) [glucosamine glycinate] | 39.2 | 19748 | – |
| glucosamine pimelate | 13.4 | 16088 | – |
| diglucosamine maleate | 34.3 | 19053 | – |
| diglucosamine pimelate | 27.1 | 18021 | – |
| Cl.N[C@H]1C(O)O[C@H](CO)[C@@H](O)[C@@H]1O (some centres unmarked) [glucosamine•HCl, glucosamine hydrochloride] | – | – | volume (projection of the switch image on to the screen) ([1]; Batch 1 switches): 14236 mm^2; % benefit ([1]; Batch 1 switches, increase in volume vs water control): 6.7%; volume (projection of the switch image on to the screen) ([1]; Batch 2 switches): 16851 mm^2; % benefit ([1]; Batch 2 switches, increase in volume vs water control): 7.3%; volumising benefit (visual comparison) [2]: clearly evident |
| diglucosamine adipate | 28.3 | 18189 | – |
| glucosamine glutamate | 30.9 | 18563 | – |
| diglucosamine glutarate | 35.6 | 19234 | – |
| diglucosamine aspartate | 39.5 | 19780 | – |
| diglucosamine glutamate | 38.0 | 19575 | – |
| glucosamine aspartate | 30.9 | 18566 | – |
| N[C@H]1C(O)O[C@H](CO)[C@@H](O)[C@@H]1O.O=C(O)CCC(=O)O (some centres unmarked) [glucosamine succinate] | 13.5 | 16102 | – |
| diglucosamine malonate | 34.3 | 19053 | – |

Source: patent publication US10813868B2, “Method of improving hair volume” (priority 2014, dated 2020)
